From patent US20110201577A1 (published 2011)

melting point [°C] | SMILES
106 to 107 | CCOC(=O)C1=C[C@@H]2[C@H]([C@@H]3OC(C)(C)O[C@H]13)N2S(=O)(=O)c1ccc(C)cc1 (stereo partly drawn)
48 | CCOC(=O)C1=CC=C[C@H](O)[C@@H]1O
154 | CCOC(=O)C1=C[C@@H](OC(CC)CC)[C@H](NC(C)=O)[C@H](O)[C@@H]1O (stereo in doubt)
156 to 158 | CCOC(=O)C1C[C@@H](O)[C@@H](NC(C)=O)[C@@H]2OC(C)(C)O[C@H]12 (stereo partly drawn)
153 to 154 | Cc1ccc(S(=O)(=O)N[C@H]2[C@@H]3OC(C)(C)O[C@@H]3C(Br)=C[C@H]2NC(=O)OC(C)(C)C)cc1

More lines, now with the values behind:

SMILES | melting point [°C]
CCOC(=O)C1C[C@@H](OS(C)(=O)=O)[C@@H](NC(C)=O)[C@@H]2OC(C)(C)O[C@H]12 (stereo partly drawn) | 101 to 102
Cc1ccc(S(=O)(=O)N[C@H]2[C@@H]3OC(C)(C)O[C@@H]3C(Br)=C[C@H]2N=[N+]=[N-])cc1 | 119 to 120
CC(=O)N[C@H]1C=C(Br)[C@H]2OC(C)(C)O[C@H]2[C@@H]1Br | 181
CCOC(=O)[C@@]12C=C[C@H]([C@@H]3OC(C)(C)O[C@@H]31)N(C(C)=O)O2 | 89 to 90
CC(=O)N1[C@@H]2[C@@H]3OC(C)(C)O[C@@H]3C(Br)=C[C@@H]21 | 128
CCOC(=O)C1=C[C@@H](OS(C)(=O)=O)[C@@H](NC(C)=O)[C@@H]2OC(C)(C)O[C@H]12 | 163 to 165
CCOC(=O)C1=C[C@@H](OC(CC)CC)[C@H](NC(C)=O)[C@@H]2OC(C)(C)O[C@H]12 | 112 to 115
